Data taken from patent US20210347805A1, “AZITHROMYCIN DERIVATIVES CONTAINING A PHOSPHONIUM ION AS ANTICANCER AGENTS” (RISING TIDE FOUNDATION, priority 2018, published 2021).

Tested on: MDA-231 cancer cells
Assay: Inhibition of proliferation assay: cell confluence (IncuCyte live cell imaging)
Type: cell-based
Details: MDA-231 cells, IncuCyte imaging over 4-5 d
Text: The confluence value is a surrogate for cell proliferation and growth. The value is expressed as a percent confluence, which represents the fraction of culture dish-surface that is occupied by cells. As the number of cells in the dish increases over time due to proliferation, so will their coverage of that surface increase. Expansion of the cell population on the cell culture-dish surface and confluence have mostly a linear relationship until the cells on the plate surface begin to reach saturation or maximum density. Confluence is determined based on image analysis. Image based software can identify objects in the image field base on changes to pixel density in a grey scale image. The software can then assign a mask to those pixels within the object. Objects can be ‘gated’ out based on size and shape. To determine cell confluence, images of cells are first masked as objects. The surface area of the image that is masked is measured and compared to the total surface area of the culture dish surface to obtain a percent confluence. MDA-231 cancer cells were obtained from ATCC. Cells were cultured in Dulbecco's Modified Eagle Medium (DMEM) supplemented with 10% Fetal Bovine Serum (FBS), 2 mM Glutamax, 1 mM Non Essential Amino Acid (NEAA) solution and 1 mM sodium pyruvate. […] Final DMSO concentrations were ≤0.1%. Images were acquired with an IncuCyte Live Cell Imaging microscopy (Essen Bioscience) at every 3 h under cell culture conditions with 10× objective over 4-5 d. Cell confluence was calculated from one field of view per well using the IncuCyte in-built algorithm. Relative confluence values were obtained by normalising each value to the time zero value in each sample.

In the case of `CC[C@H]1OC(=O)[C@H](C)[C@@H](O[C@H]2C[C@@](C)(OC)[C@@H](O)[C@H](C)O2)[C@H](C)[C@@H](O[C@@H]2O[C@H](C)C[C@H](N(C)C)[C@H]2O)[C@](C)(O)C[C@@H](C)CN(C(=O)CCCCCCC[P+](c2cc(C)cc(C)c2)(c2cc(C)cc(C)c2)c2cnn(C(C)C)c2)[C@H](C)[C@@H](O)[C@]1(C)O.[Cl-]` [Example 5, {8-[(2R,3S,4R,5R,8R,10R,11R,12S,13S,14R)-11-{[(2S,3R,4S,6R)-4-(dimethylamino)-3-hydroxy-6-methyloxan-2-yl]oxy}-2-ethyl-3,4,10-trihydroxy-13-{[(2R,4R,5S,6S)-5-hydroxy-4-methoxy-4,6-dimethyloxan-2-yl]oxy}-3,5,8,10,12,14-hexamethyl-15-oxo-1-oxa-6-azacyclopentadecan-6-yl]-8-oxooctyl}bis(3,5-dimethylphenyl)[1-(propan-2-yl)-1H-pyrazol-4-yl]phosphonium chloride], the “% Confluence” value (compound at 10 μM) is reported as 23.1%.
With `CC[C@H]1OC(=O)[C@H](C)[C@@H](O[C@H]2C[C@@](C)(OC)[C@@H](O)[C@H](C)O2)[C@H](C)[C@@H](O[C@@H]2O[C@H](C)C[C@H](N(C)C)[C@H]2O)[C@](C)(O)C[C@@H](C)CN(C(=O)CCCCCC[P+](c2cc(C)cc(C)c2)(c2cc(C)cc(C)c2)c2cnn(C(C)C)c2)[C@H](C)[C@@H](O)[C@]1(C)O.[Cl-]` [Example 6, {7-[(2R,3S,4R,5R,8R,10R,11R,12S,13S,14R)-11-{[(2S,3R,4S,6R)-4-(dimethylamino)-3-hydroxy-6-methyloxan-2-yl]oxy}-2-ethyl-3,4,10-trihydroxy-13-{[(2R,4R,5S,6S)-5-hydroxy-4-methoxy-4,6-dimethyloxan-2-yl]oxy}-3,5,8,10,12,14-hexamethyl-15-oxo-1-oxa-6-azacyclopentadecan-6-yl]-7-oxoheptyl}bis(3,5-dimethylphenyl)[1-(propan-2-yl)-1H-pyrazol-4-yl]phosphonium chloride] the “% Confluence” value (compound at 10 μM) was 15.3%.
`CC[C@H]1OC(=O)[C@H](C)[C@@H](O[C@H]2C[C@@](C)(OC)[C@@H](O)[C@H](C)O2)[C@H](C)[C@@H](O[C@@H]2O[C@H](C)C[C@H](N(C)C)[C@H]2O)[C@](C)(O)C[C@@H](C)CN(C(=O)CCCCCCCCCCCC[P+](C2CCCC2)(C2CCCC2)C2CCCC2)[C@H](C)[C@@H](O)[C@]1(C)O.[Cl-]` [Example 9, tricyclopentyl({13-[(2R,3S,4R,5R,8R,10R,11R,12S,13S,14R)-11-{[(2S,3R,4S,6R)-4-(dimethylamino)-3-hydroxy-6-methyloxan-2-yl]oxy}-2-ethyl-3,4,10-trihydroxy-13-{[(2R,4R,5S,6S)-5-hydroxy-4-methoxy-4,6-dimethyloxan-2-yl]oxy}-3,5,8,10,12,14-hexamethyl-15-oxo-1-oxa-6-azacyclopentadecan-6-yl]-13-oxotridecyl})phosphonium chloride] was tested, and the “% Confluence” value (compound at 10 μM) was 4%.
In the case of `CC[C@H]1OC(=O)[C@H](C)[C@@H](O[C@H]2C[C@@](C)(OC)[C@@H](O)[C@H](C)O2)[C@H](C)[C@@H](O[C@@H]2O[C@H](C)C[C@H](N(C)C)[C@H]2O)[C@](C)(O)C[C@@H](C)CN(C(=O)CCCCCCCCCCC[P+](c2ccccc2)(c2ccccc2)c2cnn(C(C)(C)C)c2)[C@H](C)[C@@H](O)[C@]1(C)O` [Example 3, (1-tert-butyl-1H-pyrazol-4-yl)({12-[(2R,3S,4R,5R,8R,10R,11R,12S,13S,14R)-11-{[(2S,3R,4S,6R)-4-(dimethylamino)-3-hydroxy-6-methyloxan-2-yl]oxy}-2-ethyl-3,4,10-trihydroxy-13-{[(2R,4R,5S,6S)-5-hydroxy-4-methoxy-4,6-dimethyloxan-2-yl]oxy}-3,5,8,10,12,14-hexamethyl-15-oxo-1-oxa-6-azacyclopentadecan-6-yl]-12-oxododecyl})diphenylphosphonium chloride], the “% Confluence” value (compound at 10 μM) is reported as 4%.
For `CC[C@H]1OC(=O)[C@H](C)[C@@H](O[C@H]2C[C@@](C)(OC)[C@@H](O)[C@H](C)O2)[C@H](C)[C@@H](O[C@@H]2O[C@H](C)C[C@H](N(C)C)[C@H]2O)[C@](C)(O)C[C@@H](C)CN(C(=O)CCCCCCCCCCC[P+](c2ccccc2)(c2ccccc2)c2cnn(C3CCC3)c2)[C@H](C)[C@@H](O)[C@]1(C)O.[Cl-]` [Example 4, (1-cyclobutyl-1H-pyrazol-4-yl)({12-[(2R,3S,4R,5R,8R,10R,11R,12S,13S,14R)-11-{[(2S,3R,4S,6R)-4-(dimethylamino)-3-hydroxy-6-methyloxan-2-yl]oxy}-2-ethyl-3,4,10-trihydroxy-13-{[(2R,4R,5S,6S)-5-hydroxy-4-methoxy-4,6-dimethyloxan-2-yl]oxy}-3,5,8,10,12,14-hexamethyl-15-oxo-1-oxa-6-azacyclopentadecan-6-yl]-12-oxododecyl})diphenylphosphonium chloride], the “% Confluence” value (compound at 10 μM) was 4.4%.
For `CC[C@H]1OC(=O)[C@H](C)[C@@H](O[C@H]2C[C@@](C)(OC)[C@@H](O)[C@H](C)O2)[C@H](C)[C@@H](O[C@@H]2O[C@H](C)C[C@H](N(C)C)[C@H]2O)[C@](C)(O)C[C@@H](C)CN(C)[C@H](C)[C@@H](O)[C@]1(C)O` [Azithromycin], the “% Confluence” value (compound at 10 μM) was 99.1% and the “% Confluence” value (compound at 100 μM) was 17%.
`CC[C@H]1OC(=O)[C@H](C)[C@@H](O[C@H]2C[C@@](C)(OC)[C@@H](O)[C@H](C)O2)[C@H](C)[C@@H](O[C@@H]2O[C@H](C)C[C@H](N(C)C)[C@H]2O)[C@](C)(O)C[C@@H](C)CN(C(=O)CCCCCC[P+](c2cc(C)cc(C)c2)(c2cc(C)cc(C)c2)c2cc(C)cc(C)c2)[C@H](C)[C@@H](O)[C@]1(C)O.[Cl-]` [Example 7, {7-[(2R,3S,4R,5R,8R,10R,11R,12S,13S,14R)-11-{[(2S,3R,4S,6R)-4-(dimethylamino)-3-hydroxy-6-methyloxan-2-yl]oxy}-2-ethyl-3,4,10-trihydroxy-13-{[(2R,4R,5S,6S)-5-hydroxy-4-methoxy-4,6-dimethyloxan-2-yl]oxy}-3,5,8,10,12,14-hexamethyl-15-oxo-1-oxa-6-azacyclopentadecan-6-yl]-7-oxoheptyl}tris(3,5-dimethylphenyl)phosphonium chloride] was tested, and the “% Confluence” value (compound at 10 μM) was 4.6%.
With `CC[C@H]1OC(=O)[C@H](C)[C@@H](O[C@H]2C[C@@](C)(OC)[C@@H](O)[C@H](C)O2)[C@H](C)[C@@H](O[C@@H]2O[C@H](C)C[C@H](N(C)C)[C@H]2O)[C@](C)(O)C[C@@H](C)CN(C(=O)CCCCCCCCCCCC[P+](c2ccccc2)(c2ccccc2)c2cnn(C(C)C)c2)[C@H](C)[C@@H](O)[C@]1(C)O` [Example 2, {13-[(2R,3S,4R,5R,8R,10R,11R,12S,13S,14R)-11-{[(2S,3R,4S,6R)-4-(dimethylamino)-3-hydroxy-6-methyloxan-2-yl]oxy}-2-ethyl-3,4,10-trihydroxy-13-{[(2R,4R,5S,6S)-5-hydroxy-4-methoxy-4,6-dimethyloxan-2-yl]oxy}-3,5,8,10,12,14-hexamethyl-15-oxo-1-oxa-6-azacyclopentadecan-6-yl]-13-oxotridecyl}diphenyl[1-(propan-2-yl)-1H-pyrazol-4-yl]phosphonium chloride] the “% Confluence” value (compound at 10 μM) was 5.1%.
In the case of `CC[C@H]1OC(=O)[C@H](C)[C@@H](O[C@H]2C[C@@](C)(OC)[C@@H](O)[C@H](C)O2)[C@H](C)[C@@H](O[C@@H]2O[C@H](C)C[C@H](N(C)C)[C@H]2O)[C@](C)(O)C[C@@H](C)CN(C(=O)CCCCCCCCCCCCC[P+](c2ccccc2)(c2ccccc2)c2cnn(C)c2)[C@H](C)[C@@H](O)[C@]1(C)O.[Cl-]` [Example 1, {14-[(2R,3S,4R,5R,8R,10R,11R,12S,13S,14R)-11-{[(2S,3R,4S,6R)-4-(dimethylamino)-3-hydroxy-6-methyloxan-2-yl]oxy}-2-ethyl-3,4,10-trihydroxy-13-{[(2R,4R,5S,6S)-5-hydroxy-4-methoxy-4,6-dimethyloxan-2-yl]oxy}-3,5,8,10,12,14-hexamethyl-15-oxo-1-oxa-6-azacyclopentadecan-6-yl]-14-oxotetradecyl}(1-methyl-1H-pyrazol-4-yl)diphenylphosphonium chloride], the “% Confluence” value (compound at 10 μM) is reported as 4.3%.
`CC[C@H]1OC(=O)[C@H](C)[C@@H](O[C@H]2C[C@@](C)(OC)[C@@H](O)[C@H](C)O2)[C@H](C)[C@@H](O[C@@H]2O[C@H](C)C[C@H](N(C)C)[C@H]2O)[C@](C)(O)C[C@@H](C)CN(C(=O)CCCCCCCCCCCCC[P+](c2ccccc2)(c2ccccc2)C2CCOCC2)[C@H](C)[C@@H](O)[C@]1(C)O.[Cl-]` [Example 8, {14-[(2R,3S,4R,5R,8R,10R,11R,12S,13S,14R)-11-{[(2S,3R,4S,6R)-4-(dimethylamino)-3-hydroxy-6-methyloxan-2-yl]oxy}-2-ethyl-3,4,10-trihydroxy-13-{[(2R,4R,5S,6S)-5-hydroxy-4-methoxy-4,6-dimethyloxan-2-yl]oxy}-3,5,8,10,12,14-hexamethyl-15-oxo-1-oxa-6-azacyclopentadecan-6-yl]-14-oxotetradecyl}(oxan-4-yl)diphenylphosphonium chloride] was tested, and the “% Confluence” value (compound at 10 μM) was 5.5%.
